How the values were obtained:
recombinant TLR4 protein = target: T1, recombinant TLR4 protein (Homo sapiens, UniProt O00206); assay: Microscale thermophoresis (MST) binding assay; conditions: 1:1 binding mode, read-out: mean KD, CA–TLR4
T1 construct: purchased Abcam ab233665
Protocol: The binding affinity between recombinant TLR4 protein and CA was measured by a NanoTemper Monolith NT.115 instrument (NanoTemper Technologies, Germany). The K D value was fitted by NanoTemper Monolith affinity software (NanoTemper Technologies, Germany) using 1:1 binding mode. Detailed information on the MST assay is provided in Supplementary Materials Section 12 . […]
compound was greater than 9.0×106cm/s and 40% which indicated drug-like […]
Section 11 Surface plasmon resonance (SPR) assay
SPR binding assays were analyzed with Biacore 8K (Biacore, Cytiva). Materials and reagents used in SPR assays were purchased from Cytiva. […]
UK) and CA contained in BHGZD was measured by NanoTemper Monolith NT.115 instrument (NanoTemper Technologies, Germany). […]
After the protein labeling experiment was completed, TLR4 was diluted with binding buffer (20mM HEPES, pH 7.4, 100mM NaCl and 0.005% Tween 20) to ensure that the fluorescence intensity of TLR4 during the MST assay was about 500 RU. […]
After incubation, the samples were loaded into the premium treated capillaries and measured in NanoTemper Monolith NT.115 instrument (NanoTemper Technologies, Germany). […]
The pharmacokinetic parameters were calculated by Drug and Statistic software

RAW264.7 cells [1] = assay: Cell viability, CCK-8 assay; type: cell-based, mouse; conditions: 0.21–6.74 ng/ml MG or 0.02–0.52 ng/ml CA treatment alone
Protocol: Cell viability was analyzed with the cell counting kit-8 (CCK-8) assay kit (Beyotime Biotechnology, Shanghai, China) as described in Supplementary Materials Section 16 .
Section 16 Cell proliferation assay
Cell viability was analyzed with Cell Counting Kit-8 (CCK-8) assay kit (Beyotime Biotechnology, China). Raw264.7 cells were seeded into 96-well plate, and after […]
solution was added to each well. The absorbance was measured after 4h of incubation at […]
Section 17 Flow cytometry
To identify and quantify of pyroptosis population of Raw264.7 cells, FITC Apoptosis Detection kit I staining with both the Annexin V-fluorescein isothiocyanate and propidium iodide (PI, BD Biosciences, San Jose, CA, USA) was used in accordance with manufacturer's guidelines. Briefly, Raw264.7 cells was washed twice with cold PBS and then resuspended in 1×binding buffer at a concentration of 1x10^6 cells/mL. Then, 100µL of the solution (1x10^5 cells) was transferred to a 5 mL culture tube. Subsequently, 5µL of FITC Annexin V and 5µL PI were added into cultured tube, and vortexed and incubated for 15 min at room temperature in the dark. Finally, 400µL 1×binding buffer was added into each tube, and analyzed by flow cytometry (ACEA Bioscience, San Diego, CA, USA) and NovoExpress 1.4.1 software (ACEA Bioscience, San Diego, CA, USA) within 1h.

RAW264.7 cells [2] = assay: LPS/ATP-induced pyroptosis in RAW264.7 cells (flow cytometry, FAM-FLICA, immunofluorescence, Western blotting, ELISA); type: cell-based, mouse
Excerpt: (§1) Mouse macrophage cell line (RAW264.7 cells, Bio-Swamp, Wuhan, China) and fibroblast-like synoviocytes in patients with RA (MH7A cells, Riken cell bank, Ibaraki, Japan) at passage numbers four to eight were used in the current experiment validations.
(§2) The concentration of DMSO was less than 1‰ of the solution for the in vitro experiment.
Fluorescence images were visualized and photographed with a confocal microscope (Zeiss LSM 880, Carl Zeiss, Jena, Germany).
The images were visualized and photographed with a confocal microscope (Zeiss LSM 880, Carl Zeiss, Jena, Germany) or an inverted fluorescence microscope (MF53, MSHOT, Guangzhou, China).
(§3) To evaluate the therapeutic effects of two BACs from BHGZD on the regulation of the “immune-inflammation” system, the levels of cytokines, proteins, and LDH release in RAW264.7 and MH7A cellular supernatant, as well as the sera of AIA-M rats were determined using enzyme-linked immunosorbent assay (ELISA) to assess the integrity of membranes in accordance with the manufacturer’s guidelines.
Raw264.7 cells were maintained in DMEM (Hyclone, Logan, UT, USA), supplemented
100μg/mL streptomycin and 2mM L-glutamine (TBD, Tianjin, China) in a humidified 5%
CO2 incubator at the temperature of 37℃. The Raw264.7 cells at passage numbers four
to eight were used in the current experiment validations.
MH7A cells were cultured in sterile synoviocyte growth medium (Cell Applicatio ns, Inc.,
L-glutamine (TBD, Tianjin, China) in a humidified 5% CO2 incubator at the temperature of
37℃. MH7A at passage numbers four to eight were used in the current experiment
(§4) To induce a conventional NLRP3 inflammasome activation, Raw264.7cells was induced
(§5) with 0.2μg/mL lipopolysaccharide [LPS, Escherichia coli (O111:B4), Sigma-Aldrich, St
(§6) Louis, MO, USA] for 4h, followed with a 3mM ATP adenosine triphosphate (ATP disodium
(§7) salt hydrate, Sigma-Aldrich, St Louis, MO, USA) for 1h of incubation at 37℃ with 5% CO2
(§8) For MH7A cells LPS/ATP-induced pyrotosis, MH7A cells were induced with 1μg/mL LPS
(§9) for 6h, followed with a 3mM ATP for 1h of incubation at 37℃ with 5% CO2 (11).

[3] = In vivo pharmacokinetic analysis of MG and CA after oral BHGZD (UHPLC-QTRAP-MS/MS); conditions: rat plasma after oral BHGZD 21.4 g/kg each day, n = 3
Protocol: The pharmacokinetic parameters were calculated by Drug and Statistic software (Shanghai, China). Detailed information on the collection of blood samples and UHPLC-QTRAP-MS/MS conditions is provided in Supplementary Materials Section 13 . […]
Section 13 Pharmacokinetic analysis […]
administration of BHGZD, ultra-fast liquid chromatography coupled with triple quadrupole-linear ion trap composite mass spectrometry (UHPLC-QTRAP-MS/MS) system was […]
Bioanalytical Method Validation issued by Chinese Pharmacopoeia Commission in 2020.
The pharmacokinetic parameters were calculated by Drug and Statistic software […]
1) Collection of blood samples
Male Lewis rats (n=6, 6-8 weeks-old, 200±20g in weight) were purchased from Beijing Vital River Laboratory Animal Technology Co., Ltd. (SCCK 2016-0006, Beijing, China; n=3 per group, including normal control group and normal control+BHGZD treatment group).
Diet was prohibited for 12h before the experiment but water was freely available. Blood samples (~0.25mL) were collected from the retinal venous plexus into heparinized 1.5mL polythene tubes before administration and 0, 0.25, 0.5, 1, 2, 3, 4, 6, 8,12 and 24h after administration of BHGZD. The plasma samples were obtained after centrifuging at 12000rpm for 15min, and stored at -20℃ prior to analysis.
2) UHPLC-QTRAP-MS/MS conditions
Quantification analysis were performed on an ultra-high-performance liquid chromatography (Shimadzu Corp., Japan) tandem ion trap quadrupole QTRAP 6500 plus mass spectrometry (AB Sciex, USA). Chromatographic separation was conducted using a Poroshell 120 EC-C18 column (3.0×50mm, 2.7μm) at 40℃. The mobile phase was consisted of 0.1% formic acid–water (v/v, A) and methanol (B) and elution program were:
Mass spectrometry detector were conducted in negative mode and the detecting parameters were set as follows: curtain gas, 35 psi; collision gas, medium; ionspray voltage, 4500 V; temperature, 550℃; ion source gas 1 and 2, 55psi. Quantitative ion pairs were optimized for MG: m/z 421.2-301.1 (declustering potential: 63V, CE: 30eV) and for […]
Data acquisition and analysis

MH7A cells = assay: LPS/ATP-induced pyroptosis in MH7A cells (TUNEL, immunofluorescence, Western blotting, ELISA); type: cell-based, human
Excerpt: as §1
The conventional NLRP3 inflammasome activation cellular model was induced by lipopolysaccharide [LPS, Escherichia coli (O111:B4), Sigma-Aldrich, St Louis, MO, USA] and adenosine triphosphate (ATP disodium salt hydrate, Sigma-Aldrich, St Louis, MO, USA) as in our previous study ([22]) ( Supplementary Materials Section 15 ).
as §2
The occurrence of pyroptosis in both MH7A cells and synovium tissues in AIA-M rats was determined by in situ TUNEL staining (TUNEL Andy Fluor™ 594 Apoptosis Detection Kit, ABP Biosciences, Wuhan, China) in accordance with the manufacturer’s protocol. Fluorescence images were visualized and photographed with inverted fluorescence microscopes (MF53, MSHOT, Guangzhou, China; Olympus, BX51, Tokyo, Japan).
Double fluorescence staining was performed as described previously ([22]) ( Supplementary Materials Section 20 ). The images were visualized and photographed with a confocal microscope (Zeiss LSM 880, Carl Zeiss, Jena, Germany) or an inverted fluorescence microscope (MF53, MSHOT, Guangzhou, China).
To evaluate the regulation of BHGZD on the candidate targets in arthritic tissue samples, as well as RAW264.7 and MH7A cells, Western blotting analysis was carried out following the protocol as in our previous studies ([21], [24], [29]). TLR4, phospho-PI3K (p-PI3K), PI3K, p-AKT, p-NFκB-p65, NFκB-p65, NLRP3, ASC, caspase-1, the N-terminal domain of GSDMD (GSDMD-NT), and IL-1β antibodies were used as shown in Supplementary Table S3 . GAPDH (GAPDH Mouse monoclonal antibody, Abcam, Cambridge, UK) and β-actin (Anti-beta-Actin/β-Actin Antibody, Boster Biological Technology, California, USA) were used as loading controls for arthritic tissue samples and cultured cells, respectively.
as §3, §4, §5, §6, §7, §8, §9

[4] = LPS/ATP-induced RAW264.7 cells, all p < 0.05
[5] = LPS/ATP-induced, BHGZD 28.54 μg/ml, MG 1.69 ng/ml, CA 0.13 ng/ml, 24 h
[6] = LPS/ATP-induced MH7A cells, all p < 0.05

T1 sequence (O00206 24-839): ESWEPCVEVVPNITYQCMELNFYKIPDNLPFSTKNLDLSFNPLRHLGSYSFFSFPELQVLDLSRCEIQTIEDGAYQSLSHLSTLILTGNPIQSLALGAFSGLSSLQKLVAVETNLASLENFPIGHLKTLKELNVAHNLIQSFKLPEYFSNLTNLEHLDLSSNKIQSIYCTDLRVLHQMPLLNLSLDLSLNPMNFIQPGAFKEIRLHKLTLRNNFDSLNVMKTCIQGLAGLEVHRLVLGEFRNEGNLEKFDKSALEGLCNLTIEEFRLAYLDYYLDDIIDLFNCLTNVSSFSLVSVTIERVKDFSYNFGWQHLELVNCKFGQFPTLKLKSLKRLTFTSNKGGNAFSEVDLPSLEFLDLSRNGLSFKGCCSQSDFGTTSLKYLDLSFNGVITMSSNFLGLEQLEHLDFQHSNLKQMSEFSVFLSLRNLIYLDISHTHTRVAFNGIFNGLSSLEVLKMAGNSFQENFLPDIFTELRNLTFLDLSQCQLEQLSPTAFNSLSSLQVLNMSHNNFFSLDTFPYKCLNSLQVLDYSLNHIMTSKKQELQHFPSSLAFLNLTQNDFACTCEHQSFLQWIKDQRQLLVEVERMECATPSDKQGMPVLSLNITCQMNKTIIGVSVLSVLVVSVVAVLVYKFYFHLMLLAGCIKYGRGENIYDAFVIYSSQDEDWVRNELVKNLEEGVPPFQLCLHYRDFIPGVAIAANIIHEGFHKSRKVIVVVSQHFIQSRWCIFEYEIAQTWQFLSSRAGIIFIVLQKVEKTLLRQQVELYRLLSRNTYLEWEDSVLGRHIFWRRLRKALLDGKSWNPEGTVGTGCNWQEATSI

**Q.** Which Kd (recombinant TLR4 protein) does the source give for `O=C(O)/C=C/c1ccccc1` [CA, cinnamic acid] here?
**A.** 211 µM

**Q.** What about the “cell viability (CCK8)” value (RAW264.7 cells [1]) of the same compound?
**A.** no cell toxicity

**Q.** What about the GSDMD-NT (RAW264.7 cells [2]; LPS/ATP-induced RAW264.7 cells, Western blotting) of the same compound?
**A.** decreased

**Q.** And the “expression levels of NLRP3, ASC, and caspase-1” value (RAW264.7 cells [2]; [4])?
**A.** reduced

**Q.** What about the “levels of IL-1β, IL-18, and LDH release in the supernatant” value (RAW264.7 cells [2]; [4]) of the same compound?
**A.** reduced

**Q.** What about the “PI positive cell rate” value (RAW264.7 cells [2]; LPS/ATP-induced, 1.69 ng/ml MG, 0.13 ng/ml CA, 24 h, inferior to BHGZD, all p < 0.05) of the same compound?
**A.** prominently reduced

**Q.** And the “number of FLICA-positive RAW264.7 cells” value (RAW264.7 cells [2]; [5])?
**A.** reduced

**Q.** And the “inhibition on cell pyroptosis induced by LPS/ATP, alone versus combination” value (RAW264.7 cells [2]; RAW264.7 and MH7A cells, all p < 0.05)?
**A.** weaker than that in the two-BAC combination treatment group

**Q.** What about the t1/2z ([3]; apparent elimination half-life) of the same compound?
**A.** 1.65 ± 1.34 h

**Q.** And the Cmax ([3]; male, Lewis, rat, plasma, po, 21.4 g/kg, non-compartment model, read-out: Cmax)?
**A.** 120 ± 25.9 ng/mL

**Q.** And the AUC(0-t) ([3]; male, Lewis, 0-24 h)?
**A.** 102 ± 67.8 ng·h/mL

**Q.** What about the AUC(0-inf) ([3]; male, Lewis) of the same compound?
**A.** 144 ± 30.4 ng·h/mL

**Q.** And the MRT last ([3]; male, Lewis, read-out: MRT(0-t))?
**A.** 1.93 ± 0.35 h

**Q.** And the MRT inf ([3]; male, Lewis, read-out: MRT(0-∞))?
**A.** 2.26 ± 0.8 h

**Q.** And the GSDMD-NT (MH7A cells; LPS/ATP-induced MH7A cells, Western blotting)?
**A.** decreased

**Q.** What about the “expression levels of NLRP3, ASC, and caspase-1” value (MH7A cells; [6]) of the same compound?
**A.** reduced

**Q.** And the “levels of IL-1β, IL-18, and LDH release in the supernatant” value (MH7A cells; [6])?
**A.** reduced

**Q.** And the “number of TUNEL-positive MH7A cells” value (MH7A cells; [5])?
**A.** reduced
